Consider one compound from EPA's ToxValDB 9.5 (doi:10.2903/j.efsa.2013.3052).

Some results are limits rather than exact numbers.

Series [1] deals with Cyprinodon variegatus. To be noted: acute; duration: 96 hours; mortality.
For series [2], the system named is Daphnia magna. To be noted: chronic/long-term; duration: 21 days; reproduction.
Series [3] concerns Pimephales promelas. To be noted: chronic/long-term; duration: 33 days; behavior.
Series [4] deals with Folsomia candida. The conditions noted are these: chronic/long-term; duration: 28 days; reproduction.
For series [5], the system named is Rattus norvegicus.
Series [6] has as its system Hypoaspis aculeifer. The conditions noted are these: chronic/long-term; duration: 14 days; reproduction.
Series [7] relates to Bibionidae. The conditions noted are these: chronic/long-term; duration: 28 days; other.
In series [8] the test system is Colinus virginianus.
Series [9] has as its system Apis mellifera. The conditions noted are these: acute, duration: 48 hours, mortality.
Series [10] has as its system Tagia sp.
In series [11] the test system is Neomysis kadiakensis. To be noted: acute; duration: 96 hours; mortality.
Series [12] concerns Mus musculus. To be noted: subchronic; duration: 90 days; oral; diet; organ weight.
Series [13] deals with Anas platyrhynchos. The conditions noted are these: short-term; oral; feed; mortality.

For orientation: NOAEL means the highest tested level that showed no adverse finding. On to `O=C(NCCc1ncc(C(F)(F)F)cc1Cl)c1ccccc1C(F)(F)F` [Fluopyram], for which the LC50 in series [1] was > 0.98 mg/L; in series [10] (acute, duration: 14 days, mortality), > 1000 mg/kg; in series [11], > 0.5 mg/L; in [13], > 1640 mg/kg-day. The NOEC in [2] is 1.25 mg/L; in series [3] it was 0.135 mg/L; in [4], 104 mg/kg; in series [6], > 415 mg/kg; in series [7], 1.39 mg/L; in series [10] (chronic/long-term, duration: 56 days, reproduction), 11.4 mg/kg. In addition, the NOAEL in series [5] (acute, F, neurology) stood at 50 mg/kg-day; in series [5] (chronic) it was 14.5 mg/kg-day; in [5] (chronic, duration: 2 years, oral, diet, body weight), 1.2 mg/kg-day; in [8] (reproduction developmental), 7.2 mg/kg-day; in [12], 5.4 mg/kg-day. Besides, the LD50 in series [5] (acute, oral, mortality) was > 2000 mg/kg-day; in [8] (acute, oral, mortality) it was > 2000 mg/kg-day; in series [9] (dermal) it was > 100 µg/piece; in series [9] (oral, unspecified), > 102 µg/piece.
